Key:
[1] = molecular target: His-Rac1 / GST-PBD (PAK Binding Domain) (Homo sapiens, UniProt P63000); experiment: Rac Activation AlphaScreen Assay (Rac1 AS); type: biochemical; details: 500 nM GTPγS, 37° C., 1 hour; 'positive' = signal generated was higher than the positive control
Method: AlphaScreen® assays were performed in 96-well microplates in a final reaction volume of 60 μl. Recombinant His-Rac1, recombinant GST-PBD (PAK Binding Domain), donor and acceptor beads (PerkinElmer), and inhibitors were incubated in exchange buffer (20 mM Tris pH 7.5, 50 mM NaCl, 1 mM MgCl2, 1 mM EDTA, 500 nM GTPγS (guanosine 5′-[γ-thio]triphosphate)) at 37° C. Readings were performed on a Tecan M1000 pro microplate reader after 1 hour.

[2] = test system: androgen receptor response gene (PSA) in LNCaP prostate cancer cells; experiment: Inhibition of Androgen Receptor Target Gene Transcription (PSA qPCR); type: cell-based; details: 10 nM DHT, 4 hours, 10 uM bicalutamide, 10 uM enzalutamide, 12.5 or 25 uM 0032661
Method: After 4 hours, RNA was harvested and converted into cDNA. qPCR analysis for PSA was performed on all samples and normalized to expression of GAPDH. The data, shown in FIG. 11, is expressed as fold change relative to PSA expression of the cFBS sample.

[3] = test system: MCF-7 human breast cancer cell line; experiment: Cell Viability Assay (MCF7), PrestoBlue; type: cell-based; details: MCF7, 72 h, MCF-7 cells, three days after drug treatment
How it was run: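 MCF-7 cells seeded 24 hours before dosing with 0 to 200 μM compound (11 concentrations, 1% DMSO final) for three days. PrestoBlue (resazurin) added to 10% final, 1 hour incubation, fluorescence at ex 560/em 590 nm; percentage living cells relative to control wells.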

[4] = test system: estrogen receptor response gene (SDF) in MCF7 breast cancer cells; experiment: Inhibition of Estrogen Receptor Target Gene Transcription (SDF qPCR); type: cell-based; details: MCF7, 10 nM estradiol, 4 hours
Method: After 4 hours, RNA was harvested and converted into cDNA. qPCR analysis for SDF was performed on all samples and normalized to expression of GAPDH. The data, shown in FIG. 7, is expressed as fold change relative to SDF expression of the cFBS sample.

## FC(F)(F)c1ccc2c(SCCCCCCn3cnc(CN4CCOCC4)c3)ccnc2c1 [Compound 0032661, 4-[[1-[6-[[7-(trifluoromethyl)-4-quinolyl]sulfanyl]hexyl]imidazol-4-yl]methyl]morpholine]
[1]
  IC50: 44.8 µM
[2]
  androgen receptor target gene transcription (PSA): inhibit the androgen receptor target gene transcription
[3]
  IC50: 6.6 µM
[4]; 1 uM fulvestrant plus 5 uM 0032661
  SDF gene expression, combination: reduces SDF gene expression more than either single treatment alone
[4]; 1 uM fulvestrant, 5 or 10 uM 0032661
  estrogen receptor target gene transcription (SDF): inhibit the estrogen receptor target gene transcription

— patent US10472352B2, “Rac inhibitors” (Geneyus LLC, priority 2017, dated 2019)
